Assay results from ChEMBL document CHEMBL1139919, “Beta-substituted cyclohexanecarboxamide cathepsin K inhibitors: modification of the 1,2-disubstituted aromatic core” (Bioorg Med Chem Lett, 2007).

What was measured:
[1] = organism: Homo sapiens; test: Selectivity for human cathepsin K over human cathepsin S
[2] = molecular target: Cathepsin K (Homo sapiens, UniProt P43235); test: Inhibition of humaized rabbit cathepsin K
[3] = molecular target: T1, Cathepsin K (Oryctolagus cuniculus, UniProt P43236); test: Inhibition of rabbit cathepsin K
T1 sequence (P43236 whole entry): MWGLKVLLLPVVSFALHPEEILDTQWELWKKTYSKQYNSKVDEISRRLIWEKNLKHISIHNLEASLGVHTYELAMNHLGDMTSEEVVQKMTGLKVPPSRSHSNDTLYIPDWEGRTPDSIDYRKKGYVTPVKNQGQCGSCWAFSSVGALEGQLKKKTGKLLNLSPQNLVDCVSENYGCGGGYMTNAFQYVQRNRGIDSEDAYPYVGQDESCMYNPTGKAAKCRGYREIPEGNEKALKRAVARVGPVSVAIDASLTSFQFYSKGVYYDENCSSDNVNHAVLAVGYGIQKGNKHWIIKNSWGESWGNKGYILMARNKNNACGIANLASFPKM

[4] = organism: Oryctolagus cuniculus; test: Selectivity for IC50 of new Zealand white […] bone resorption over IC50 rabbit cathepsin K; format: functional
[5] = organism: Homo sapiens; test: Selectivity for human cathepsin K over human cathepsin L
[6] = organism: Oryctolagus cuniculus; test: Inhibition of bone resorption in New Zealand white rabbit by crosslaps ELISA assay; format: functional, organism-based
[7] = organism: Homo sapiens; test: Selectivity for human cathepsin K over human cathepsin B
[8] = AUC in rat at 5 mg/kg, po or 1 mg/kg, iv; format: ADME, organism-based; conditions: plasma
[9] = Oral bioavailability in rat at 5 mg/kg; format: ADME, organism-based; conditions: in vivo
[10] = Half life in rat at 5 mg/kg, po or 1 mg/kg, iv; format: ADME, organism-based; conditions: in vivo
[11] = Oral bioavailability in rat at 10 mg/kg; format: ADME, organism-based; conditions: in vivo
[12] = AUC in rat at 10 mg/kg, po or 5 mg/kg, iv; format: ADME, organism-based; conditions: plasma
[13] = Half life in rat at 10 mg/kg, po or 5 mg/kg, iv; format: ADME, organism-based; conditions: in vivo

| Structure (SMILES) | Selectivity ratio [1] | IC50 [2] | IC50 [3] | Selectivity ratio [5] | IC50 ([6]; Oryctolagus cuniculus) | Selectivity ratio [7] | AUC [8] | bioavailability [9] | half-life [10] | bioavailability [11] | AUC [12] | half-life [13] | IC50 [6] | Ratio IC50 [4] |
| --- | --- | --- | --- | --- | --- | --- | --- | --- | --- | --- | --- | --- | --- | --- |
| CSc1ccc(-c2c(C3CCC(F)(F)CC3C(=O)NCC#N)nnn2Cc2ccccc2)cc1 (racemic) | 180 | 2 nM | 9 nM | 350 | 33 nM | 1400 |  |  |  |  |  |  |  | 4 |
| N#CCNC(=O)C1CC(F)(F)CCC1c1cnccc1-c1ccc(SCF)cc1 (racemic) | 450 | 2 nM | 2 nM | 260 | 58 nM | > 5000 |  |  |  |  |  |  |  | 29 |
| CSc1ccc(-c2c[n+]([O-])ccc2C2CCC(F)(F)CC2C(=O)NCC#N)cc1 (racemic) | 480 | 5 nM | 5 nM | 460 | 75 nM | > 2000 |  |  |  |  |  |  |  | 15 |
| CSc1ccc(-c2ccccc2C2CCC(F)(F)CC2C(=O)NCC#N)cc1 (racemic; form 1) [listing 1 of 2 here] |  | 0.3 nM | 0.3 nM |  |  |  |  |  |  | 39% | 18.5 µM·h |  | 16 nM |  |
| CSc1ccc(-c2ccccc2C2CCC(F)(F)CC2C(=O)NCC#N)cc1 (racemic; form 1) [listing 2 of 2 here] | 940 |  |  | 780 |  | > 36000 |  |  |  |  |  |  |  | 53 |
| CSc1ccc(-c2ccccc2C2CCC(F)(F)CC2C(=O)NCC#N)cc1 (racemic; form 2) [listing 1 of 2 here] |  | 0.5 nM |  |  |  |  |  |  |  |  |  |  | 38 nM |  |
| CSc1ccc(-c2ccccc2C2CCC(F)(F)CC2C(=O)NCC#N)cc1 (racemic; form 2) [listing 2 of 2 here] | 1100 |  |  | 880 |  | > 120000 |  |  |  |  |  |  |  | 76 |

More lines, main results first:

| Selectivity ratio [1] | IC50 [2] | IC50 [3] | Selectivity ratio [5] | IC50 ([6]; Oryctolagus cuniculus) | Selectivity ratio [7] | AUC [8] | bioavailability [9] | half-life [10] | bioavailability [11] | AUC [12] | half-life [13] | IC50 [6] | Structure (SMILES) | Ratio IC50 [4] |
| --- | --- | --- | --- | --- | --- | --- | --- | --- | --- | --- | --- | --- | --- | --- |
| 310 | 8 nM | 6 nM | 430 | 84 nM | > 1250 |  |  |  |  |  |  |  | CSc1ccc(-c2c(C3CCC(F)(F)CC3C(=O)NCC#N)cc[nH]c2=O)cc1 (racemic) | 14 |
| 380 | 0.2 nM | 0.1 nM | 270 | 17 nM | 15000 |  |  |  |  |  |  |  | CSc1ccc(-c2nc(C)sc2C2CCC(F)(F)CC2C(=O)NCC#N)cc1 (racemic) | 170 |
| 720 | 1 nM | 1 nM | 520 | 18 nM | > 10000 | 8.6 µM·h | 65% | 60 min |  |  |  |  | CSc1ccc(-c2cnccc2C2CCC(F)(F)CC2C(=O)NCC#N)cc1 (racemic) | 18 |
| 850 | 1 nM | 1 nM | 540 | 10 nM | > 10000 |  |  |  |  |  |  |  | CSc1ccc(-c2ncccc2C2CCC(F)(F)CC2C(=O)NCC#N)cc1 (racemic) | 10 |
| 540 | 4 nM | 5 nM | 410 | 20 nM | 1200 |  |  |  |  |  |  |  | CSc1ccc(-c2c[nH]c(=O)cc2C2CCC(F)(F)CC2C(=O)NCC#N)cc1 (racemic) | 4 |
| 490 | 0.4 nM | 0.4 nM | 730 | 41 nM | 9500 |  |  |  | 100% | 28.9 µM·h | 276 min |  | CSc1ccc(-c2cn(C)nc2C2CCC(F)(F)CC2C(=O)NCC#N)cc1 (racemic) | 103 |
